Measured values from patent publication US20110281802A1, “COMPOSITION FOR TREATMENT AND PREVENTION OF HAIR LOSS AND PREMATURE GRAYING OF HAIR” (Immudiagnostik AG, priority 2007, published 2011).

What was measured:
[1] = tested on: human anagen hair follicles; test: Ki67/TUNEL staining, percentage of proliferating cells, assay #3; assay type: cell-based; settings: after 9 days of culture, Anagen only
Experimental: Assay #3 Culture HF 446: Eight hair follicle cultures (3 follicles/well) were treated with various concentration of test substance as described for 2 days, followed by snap freezing and sectioning of two wells. Six wells were treated up to 9 days, then snap frozen and sectioned. The distribution of test substances and concentrations were as indicted in FIG. 3. The parameter measured after two days was proliferation/apoptosis, and the parameters measured after 9 days were elongation, proportion of cells in proliferation/apoptosis, and hair cycle stage
After nine days, Ki67/TUNEL staining was performed and photos taken.
Proliferating and resting cells as well as cells undergoing apoptosis were counted separately proximal Auber's line. Results are expressed as percentages. For Ki-67/TUNEL staining, fixed sections were incubated for 60 minutes in a solution comprising 30% TdT-enzyme (Chemicon International, Inc., Temecula, Calif., USA; CatNo S1707). 2 mL stop buffer (Chemicon International, Inc.; CatNo S7110), diluted in 68 mL distilled water, was added for 10 minutes to stop the reaction. This was followed by a pre-incubation for 20 minutes with 10% goat serum (Dako Cytomation, CatNo 50114121) and incubation with mouse-anti human Ki-67 antigen (Chemicon International, Inc., CatNo S7110) 1:20 in PBS with 2% goat serum. The fixed section was then washed in PBS, treated with anti-digoxigenin antibody (Chemicon International, Inc., CatNo S7110) (59DI Antibody solution and 5601 Stop solution, 30 minutes) and goat anti-mouse-IgG-rhodamine red (Jackson Immuno Research, Suffolk, UK; CatNo 115-295-062), 1:200 in PBS with 2% goat serum. After washes with PBS, counterstaining with DAPI™ ([…]) (Roche, Basel, Switzerland; CatNo 236276) and further washes with PBS and mounting using Fluoromount (Southern Biotech, Birmingham, Ala., USA; CatNo 0100-01).
After nine days, Ki67/TUNEL staining was performed and photos were taken. In anagen hair follicles, proliferating cells and cells undergoing apoptosis were counted separately proximal Auber's line. Results are expressed as percentages. […] The results are summarized in Table 6 and FIG. 9 showing the mean percentage of Ki6 7 positive cells with SEM

[2] = tested on: Prolactin; test: Immunohistochemical staining of treated hair follicles for prolactin (assay #6); assay type: cell-based, human; settings: 10 pg/mL and 100 pg/mL, few hair follicles, very preliminary
Experimental: The staining was performed according to the following protocol:
A. Prolactin: Pre-treatment with 0.5% Triton X (Fluka, Sigma Aldrich, Taufkirchen, Germany; CatNo 93420) in TBS for 10 minutes at room temperature, three washings in TBS for five minutes each, treatment with 0.6% H2O2 in methanol three times for 15 minutes, washes in TBS. Pre-incubation with 10% rabbit serum (Dako Cytomation, CatNo X0902) in TBS with 3% BSA for 20 minutes, incubation with primary antibody (goat anti-human prolactin, Santa Cruz Biotechnology, Inc., Santa Cruz, Calif., USA; CatNo SC-7805), dilution 1:100 in TBS+2% rabbit serum (Dako Cytomation, CatNo X0902) overnight at 4° C. Thereafter washes in TBS. Incubation with secondary antibody (rabbit anti-goat-biotinylated, DAKO Cytomation, CatNo E0466) diluted to 1:200 with 2% rabbit serum in TBS for 45 minutes at room temperature. Treatment with Avidin Biotin Complex-alkaline phosphatase (Vector Laboratories, Burlingame, Calif., USA; CatNo AK-5000) for 30 minutes, then washing in TBS. Thereafter treatment with Fast Red Tablets (Sigma-Aldrich, CatNo F4648-50SET) for 6 minutes. Counterstaining with Mayer's Haemalaun (Chroma Muenster, CatNo 2E038) and mounting with Aquamount (DAKO Cytomation, CatNo S3025).
In both assays human pituitary gland was set as positive control and negative control were hair follicles treated without the primary antibody.

[3] = tested on: TSH; test: Immunohistochemical staining of treated hair follicles for TSH (assay #6); assay type: cell-based, human; settings: few slides only
Experimental: Assay #6—Stimulation of expression of pituitary hormones by Thymulin (PRL+TSH): Hair follicles from the occipital area of a person were cultured for 9 days and treated with culture medium and thymulin 10 pg/mL (human thymulin, No A9530AG.1; Immundiagnostik AG, Bensheim, Germany) as described above, then snap frozen and sectioned. The staining was performed according to the following protocol:
B. TSH: Pre-incubation with 10% goat serum (Dako Cytomation, CatNo 50114121) in TBS for 20 minutes, then incubation with primary antibody (mouse anti-human TSH, Dianova, Hamburg, Germany, CatNo DLN 07830), dilution 1:20 in TBS+2% goat serum (Dako Cytomation, CatNo 50114121) overnight at 4° C. Thereafter washing in TBS. Incubation with secondary antibody (goat anti-mouse-biotinylated, Beckman Coulter, Inc. Fullerton, Calif., USA, CatNo IM0816) diluted to 1:200 with 2% goat serum in TBS for 45 minutes at room temperature. Treatment with avidin/biotin-complex coupled with alkaline phosphatase (Vector Laboratories, Burlingame, Calif., USA; CatNo AK-5000) for 30 minutes, then washes in TBS. Thereafter treatment with Fast Red Tablets (Sigma-Aldrich, CatNo F4648-50SET) for 6 minutes. Counterstaining with Mayer's Haemalaun (Chroma Muenster, CatNo 2E038) and mounting with Aquamount (DAKO Cytomation, CatNo S3025). […]

Substance | Mean percentage of Ki67-positive cells ([1]; 100 ng/mL) [percentage] | Mean percentage of Ki67-positive cells ([1]; 1000 ng/mL) [percentage] | Immunoreactivity for Prolactin in treated hair follicles (in words) [2] | Immunoreactivity for TSH, treated versus control hair follicles (in words) [3] | Mean percentage of Ki67-positive cells ([1]; 10 pg/mL) [percentage] | Mean percentage of Ki67-positive cells ([1]; 100 pg/mL) [percentage]
Thymosin beta-4 [TB4] | 39.30 | 33.14 | – | – | – | –
thymulin | – | – | some additional staining in the IRS | Did not Show any Differences | 31.58 | 35.75
